Reference: patent US4285953A, “Inhibition of biosynthesis of triglycerides by certain N-β-phenethyl-N-pyridylalkylamines” (Shell Oil Company, priority 1980, dated 1981)

Test system: enzyme prepared from pig adipose tissue (synthesis of triglycerides)
Experiment: Inhibition of triglyceride synthesis by enzyme preparation from pig adipose tissue (14C-glycerol-3-phosphate incorporation)
Format: biochemical
Settings: test compound 1000 micrograms per milliliter, 5% DMSO, 8 minutes at 37° C; compared to controls without test compound; average of two animals
Procedure: An enzyme was prepared by homogenizing one gram of slices from pig adipose tissue, each slice being approximately 0.3 mm thick, in onemilliliter portions of a liquid medium (Liquid A). The homogenate then was centrifuged (10.000 g×15 minutes), and the supernatant phase (the enzyme) was poured through cheesecloth to remove fat that had risen to the top of the centrifuge tubes.
Liquid A had the following composition (in water):
0.15 M potassium chloride, 1 mM ethylenediaminetetracetic acid, […] Hepes (N-2-hydroxyethylpiperazine-N'-2-ethanesulfonic acid), 1 mM DTT (dithiothreitol), pH=7.0.
A solution of the test compound (Liquid B) was prepared: 10 milligrams of test compound plus 0.5 milliliter dimethylsulfoxide (DMSO) plus 1.83 milliliters of glass-distilled water.
A premix (Liquid C) was freshly prepared before each test, from the following components: […]
0.25 milliliter of enzyme then was added. […] Ten milliliters of a 2:1 (v/v) mixture of toluene and Triton X-100 containing 0.27% New England Nuclear Omnifluor was added, and the radioactivity was determined in a liquid scintillation counter. […]
The percent inhibition by the test compound compared to the controls (no test compound) was determined.

| SMILES | Percent Inhibition |
| --- | --- |
| Cc1ccc(CC(C)NCCCC(c2ccccc2)c2ccccn2)cc1.O=C(O)/C=C\C(=O)O (centres unmarked) [Compound 1, N-(1-methyl-2-(4-methylphenyl)ethyl)-delta-phenyl-2-pyridinebutanamine, maleic acid salt] | 97 |
| CC(C)(Cc1ccc(Cl)cc1)NCCCC(c1ccccc1)c1ccccn1.O=C(O)/C=C\C(=O)O (centres unmarked) [Compound 2, N-(2-(4-chlorophenyl)-1,1-dimethylethyl)-delta-phenyl-2-pyridinebutanamine, maleic acid salt] | 93 |
